Each structure is given as a SMILES string. Where “and” joins values, the source holds several entries; their conditions need not be identical. Equal entries are not always repeated. Calls of active or inactive are those of the source. No rule for the calls is given here.

Phospholipase D2 (Homo sapiens), sequence (O14939 whole entry, looked up): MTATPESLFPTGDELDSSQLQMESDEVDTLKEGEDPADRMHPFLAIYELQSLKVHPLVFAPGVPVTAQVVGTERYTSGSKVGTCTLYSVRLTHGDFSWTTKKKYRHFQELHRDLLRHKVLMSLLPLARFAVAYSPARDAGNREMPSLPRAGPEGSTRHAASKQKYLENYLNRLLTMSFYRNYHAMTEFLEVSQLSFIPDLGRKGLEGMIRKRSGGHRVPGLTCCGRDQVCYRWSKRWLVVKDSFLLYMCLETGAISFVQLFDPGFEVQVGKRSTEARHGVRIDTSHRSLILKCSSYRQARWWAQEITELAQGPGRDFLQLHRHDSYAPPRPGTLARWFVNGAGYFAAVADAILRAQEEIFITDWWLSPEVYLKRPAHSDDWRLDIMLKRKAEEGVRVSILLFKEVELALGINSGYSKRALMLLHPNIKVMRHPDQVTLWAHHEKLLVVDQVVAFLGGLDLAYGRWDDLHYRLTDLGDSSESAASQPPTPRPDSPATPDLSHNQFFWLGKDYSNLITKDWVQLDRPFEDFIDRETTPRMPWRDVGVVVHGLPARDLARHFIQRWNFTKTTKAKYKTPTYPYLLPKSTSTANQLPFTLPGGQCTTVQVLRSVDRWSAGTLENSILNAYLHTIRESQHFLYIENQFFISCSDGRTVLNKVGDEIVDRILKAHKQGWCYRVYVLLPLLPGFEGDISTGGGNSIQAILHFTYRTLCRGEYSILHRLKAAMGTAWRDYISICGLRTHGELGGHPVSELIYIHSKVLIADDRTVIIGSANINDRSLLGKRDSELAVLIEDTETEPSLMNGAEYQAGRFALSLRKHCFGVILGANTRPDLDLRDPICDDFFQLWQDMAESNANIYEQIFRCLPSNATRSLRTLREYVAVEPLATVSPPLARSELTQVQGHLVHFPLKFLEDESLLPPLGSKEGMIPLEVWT

The first test has as its target Phospholipase D2 (Homo sapiens) (UniProt O14939). Kind of test: cellular phospholipase D2 activity inhibition – cell-based (AID 743409). Conditions: cellular PLD2 isoenzyme activity, at 2 µM, stronger effect = higher value.
A word on the inhibition: it is the percentage by which the read-out fell short of the control. As to `O=C(NCCN1CCC2(CC1)C(=O)NCN2Cc1cccnc1)c1ccccc1F`, the inhibition is 0% (inactive).
The same measure, in the same setting: the figure for `O=C(NCCN1CCC2(CC1)C(=O)NCN2Cc1cccnc1)c1ccc(F)c(F)c1` is 22% (inactive).
Consider `O=C(NCCN1CCC2(CC1)C(=O)NCN2c1cncc(F)c1)c1ccc(Br)cc1`, for which the inhibition is 15% (inactive).
Take `O=C(NCCN1CCC2(CC1)C(=O)NCN2c1cccnc1)c1ccc(Br)cc1`: the inhibition is 0% (inactive).
The same measure, in the same setting: the figure for `O=C(NCCN1CCC2(CC1)C(=O)NCN2c1cccnc1)c1ccc(F)cc1` is 2% (inactive); for `O=C(NCCN1CCC2(CC1)C(=O)NCN2Cc1cccnc1)[C@@H]1C[C@H]1c1ccccc1` it is 20% (inactive); for `O=C(NCCN1CCC2(CC1)C(=O)NCN2Cc1cccnc1)c1cc2cccnc2[nH]1` it is 19% (inactive).
Consider `O=C(NCCN1CCC2(CC1)C(=O)NCN2Cc1cccnc1)c1ccc(Cl)cc1Cl`, for which the inhibition was 0% (inactive).
As for `O=C(NCCN1CCC2(CC1)C(=O)NCN2Cc1cccnc1)c1cccs1`, the inhibition was 0%.
As for `O=C(NCCN1CCC2(CC1)C(=O)NCN2c1cncc(F)c1)c1cc2cc(F)ccc2[nH]1`, the inhibition is 15% (inactive).
For the molecule `O=C(NCCN1CCC2(CC1)C(=O)NCN2Cc1cccnc1)c1sc2ncccc2c1-n1cccc1`, the inhibition was 5% (inactive).
`O=C(NCCN1CCC2(CC1)C(=O)NCN2c1cncc(F)c1)c1cc(F)c(F)c(F)c1`: the inhibition was 2% (inactive).
The same measure, in the same setting: the same measure for `O=C(NCCN1CCC2(CC1)C(=O)NCN2Cc1cccnc1)c1ccc(F)cc1C(F)(F)F`: 0% (inactive).
With `COc1cc(C(=O)NCCN2CCC3(CC2)C(=O)NCN3Cc2cccnc2)cc(OC)c1OC`, the inhibition is 15% (inactive).
Same read-out and setting: the figure for `O=C(NCCN1CCC2(CC1)C(=O)NCN2c1cccnc1)c1ccc(F)c(F)c1` is 7% (inactive).
As to `O=C(NCCN1CCC2(CC1)C(=O)NCN2Cc1cccnc1)c1ccc(SC(F)(F)F)cc1`, the inhibition is 8% (inactive).
Turning to `O=C(NCCN1CCC2(CC1)C(=O)NCN2Cc1cccnc1)c1ccc2ccccc2c1Br`, the inhibition was 61%.
Still for that read-out and setting: the figure for `Cc1ccc(S(=O)(=O)NCCN2CCC3(CC2)C(=O)NCN3Cc2cccnc2)cc1` is 10% (inactive); for `O=C(NCCN1CCC2(CC1)C(=O)NCN2c1cccnc1)c1cc2cc(F)ccc2[nH]1` it is 12% (inactive).
On the same count and under the same terms, the same measure for `O=C(NCCN1CCC2(CC1)C(=O)NCN2c1ccnc(F)c1)c1ccc2ccccc2c1`: 15% (inactive); for `O=C(NCCN1CCC2(CC1)C(=O)NCN2Cc1cccnc1)c1ccc(Cl)c(Cl)c1`: 63% (inactive).
Same read-out and setting: the figure for `Cc1cc(N2CNC(=O)C23CCN(CCNC(=O)c2ccc4ccccc4c2)CC3)ccn1` is 0% (inactive); for `Cn1cc(C(=O)NCCN2CCC3(CC2)C(=O)NCN3Cc2cccnc2)c2ccccc21` it is 31% (inactive); for `O=C(NCCN1CCC2(CC1)C(=O)NCN2c1ccnc(Cl)c1)c1ccc2ccccc2c1` it is 11% (inactive).
For the molecule `O=C(NCCN1CCC2(CC1)C(=O)NCN2c1cncc(F)c1)c1ccc2ccccc2c1`, the inhibition was 18% (inactive).
As to `O=C(NCCN1CCC2(CC1)C(=O)NCN2Cc1cccnc1)c1cc(F)c(F)c(F)c1`, the inhibition is 10% (inactive).
As to `O=C(NCCN1CCC2(CC1)C(=O)NCN2Cc1cccnc1)c1ccc(C(F)(F)F)cc1`, the inhibition is 5% (inactive).
Consider `O=C(NCCN1CCC2(CC1)C(=O)NCN2Cc1cccnc1)c1cc2cc(F)ccc2[nH]1`, for which the inhibition was 100%.
On to `O=C(NCCN1CCC2(CC1)C(=O)NCN2Cc1cccnc1)c1cccc(F)c1`, for which the inhibition is 14% (inactive).
With `O=C(NCCN1CCC2(CC1)C(=O)NCN2Cc1cccnc1)c1ccc(Br)cc1`, the inhibition was 48% (inactive).
On to `O=C(NCCN1CCC2(CC1)C(=O)NCN2Cc1cccnc1)c1ccnc2ccccc12`, for which the inhibition is 0% (inactive).
For `O=C(NCCN1CCC2(CC1)C(=O)NCN2Cc1cccnc1)c1nccc2ccccc12`, the inhibition is 32% (inactive).
Still for that read-out and setting: the same measure for `O=C(NCCN1CCC2(CC1)C(=O)NCN2Cc1cccnc1)c1c(F)ccc(Cl)c1F`: 18% (inactive); for `O=C(NCCN1CCC2(CC1)C(=O)NCN2c1cncc(F)c1)c1ccc(F)c(F)c1`: 0% (inactive).
With `O=C(NCCN1CCC2(CC1)C(=O)NCN2Cc1cccnc1)c1cccc2cccnc12`, the inhibition was 42% (inactive).
Regarding `Cn1c(C(=O)NCCN2CCC3(CC2)C(=O)NCN3Cc2cccnc2)cc2ccccc21`, the inhibition was 14% (inactive).
Regarding `O=C(NCCN1CCC2(CC1)C(=O)NCN2Cc1cccnc1)c1ccc2ccccc2n1`, the inhibition was 31% (inactive).
Still for that read-out and setting: the figure for `O=C(NCCN1CCC2(CC1)C(=O)NCN2Cc1cccnc1)c1cccc(Cl)c1` is 21% (inactive).
`O=C(NCCN1C=CC2(CC1)C(=O)NCN2Cc1cccnc1)c1cccc2nsnc12` (centres undefined): the inhibition was 4% (inactive).
On to `O=C(NCCN1CCC2(CC1)C(=O)NCN2Cc1cccnc1)c1ccc2c(c1)C(=O)NC2=O`, for which the inhibition is 0% (inactive).
Regarding `O=C(NCCN1CCC2(CC1)C(=O)NCN2Cc1cccnc1)c1c(Cl)cncc1Cl`, the inhibition is 3% (inactive).
On to `O=C(NCCN1CCC2(CC1)C(=O)NCN2Cc1cccnc1)c1cccc(C(F)(F)F)c1`, for which the inhibition was 0% (inactive).
Consider `O=C(NCCN1CCC2(CC1)C(=O)NCN2Cc1cccnc1)c1c[nH]c2ccccc12`, for which the inhibition was 23% (inactive).
Regarding `O=C(NCCN1CCC2(CC1)C(=O)NCN2Cc1cccnc1)c1ccc2ccccc2c1`, the inhibition is 80%.
On to `Cc1cc(Br)cnc1C(=O)NCCN1CCC2(CC1)C(=O)NCN2Cc1cccnc1`, for which the inhibition is 1% (inactive).
Same read-out and setting: the figure for `O=C(NCCN1CCC2(CC1)C(=O)NCN2c1cccnc1)c1ccc2ccccc2c1` is 0% (inactive); for `O=C(NCCN1CCC2(CC1)C(=O)NCN2Cc1cccnc1)c1cc2ccccc2o1` it is 73%; for `O=C(NCCN1CCC2(CC1)C(=O)NCN2c1cncc(F)c1)c1ccc(F)cc1` it is 3% (inactive).
Consider `O=C(NCCN1CCC2(CC1)C(=O)NCN2Cc1cccnc1)c1ccc(F)cc1`, for which the inhibition is 11% (inactive).
On the same count and under the same terms, the figure for `Cc1nc2sc(C(=O)NCCN3CCC4(CC3)C(=O)NCN4Cc3cccnc3)c(N)c2c(C)c1C` is 8% (inactive); for `O=C(NCCN1CCC2(CC1)C(=O)NCN2Cc1cccnc1)c1nc(-c2ccc(F)cc2)no1` it is 17% (inactive); for `O=C(NCCN1CCC2(CC1)C(=O)NCN2c1cccnc1)c1cc(F)c(F)c(F)c1` it is 0% (inactive).
Consider `O=C(NCCN1CCC2(CC1)C(=O)NCN2c1cncc(Br)c1)c1ccc2ccccc2c1`, for which the inhibition was 26% (inactive).
On to `O=C(NCCN1CCC2(CC1)C(=O)NCN2Cc1cccnc1)c1ccc2cc(F)ccc2c1`, for which the inhibition is 36% (inactive).
Regarding `Cc1cc(C)c2cc(C(=O)NCCN3CCC4(CC3)C(=O)NCN4Cc3cccnc3)[nH]c2c1`, the inhibition is 35% (inactive).
In the case of `O=C(NCCN1CCC2(CC1)C(=O)NCN2Cc1cccnc1)c1cc(F)cc(F)c1`, the inhibition was 4% (inactive).
Regarding `O=C(NCCN1CCC2(CC1)C(=O)NCN2Cc1cccnc1)c1ccc(Cl)cc1F`, the inhibition is 18% (inactive).
Regarding `O=C(NCCN1CCC2(CC1)C(=O)NCN2Cc1cccnc1)c1cc2ccccc2[nH]1`, the inhibition is 100%.
Take `O=C(NCCN1CCC2(CC1)C(=O)NCN2Cc1cccnc1)c1ccc(F)cc1Cl`: the inhibition is 0% (inactive).
Take `O=C(NCCN1CCC2(CC1)C(=O)NCN2c1ccc(C(F)(F)F)nc1)c1ccc2ccccc2c1`: the inhibition was 4% (inactive).
As to `O=C(NCCN1CCC2(CC1)C(=O)NCN2Cc1cccnc1)c1ccc(F)cc1F`, the inhibition is 0% (inactive).

Still in this test, the particulars now being: cellular PLD2 isoenzyme activity, at 20 µM, stronger effect = higher value.
As for `O=C(NCCN1CCC2(CC1)C(=O)NCN2C(=O)c1ccccc1)c1ccc2ccccc2c1`, the inhibition is 82%.
With `O=C(NCCN1CCC2(CC1)C(=O)NCN2CC1CC1)c1ccc2ccccc2c1`, the inhibition was 100%.
Take `O=C(NCCN1CCC2(CC1)C(=O)NCN2C(=O)C1CCC1)c1ccc2ccccc2c1`: the inhibition is 100%.
On the same count and under the same terms, the figure for `O=C(NCCN1CCC2(CC1)C(=O)NCN2C(=O)C1CC1)c1ccc2ccccc2c1` is 100%; for `O=C(NCCN1CCC2(CC1)C(=O)NCN2Cc1ccncc1)c1ccc2ccccc2c1` it is 100%; for `O=C(NCCN1CCC2(CC1)C(=O)NCN2Cc1ccc(Cl)cc1)c1ccc2ccccc2c1` it is 96%.
As to `O=C(NCCN1CCC2(CC1)C(=O)NCN2Cc1ccccc1)c1ccc2ccccc2c1`, the inhibition is 99%.
In the case of `O=C(NCCN1CCC2(CC1)C(=O)NCN2Cc1ccccc1Cl)c1ccc2ccccc2c1`, the inhibition was 100%.
With `COc1cccc(C(=O)N2CNC(=O)C23CCN(CCNC(=O)c2ccc4ccccc4c2)CC3)c1`, the inhibition is 85%.
Still for that read-out and setting: the figure for `O=C(NCCN1CCC2(CC1)C(=O)NCN2Cc1ccccc1F)c1ccc2ccccc2c1` is 65% and 100%; for `O=C(NCCN1CCC2(CC1)C(=O)NCN2Cc1ccccc1Br)c1ccc2ccccc2c1` it is 100%; for `O=C(NCCN1CCC2(CC1)C(=O)NCN2C(=O)c1cccc(F)c1)c1ccc2ccccc2c1` it is 84%.
On the same count and under the same terms, the same measure for `O=C(NCCN1CCC2(CC1)C(=O)NCN2Cc1cccc(OC(F)(F)F)c1)c1ccc2ccccc2c1`: 46% (inactive).
As to `O=C(NCCN1CCC2(CC1)C(=O)NCN2Cc1cccnc1)c1ccc2ccccc2c1`, the inhibition is 100%.
In the case of `O=C(NCCN1CCC2(CC1)C(=O)NCN2Cc1cccc2ccccc12)c1ccc2ccccc2c1`, the inhibition is 100%.
As for `O=C(NCCN1CCC2(CC1)C(=O)NCN2Cc1cccc(Cl)c1)c1ccc2ccccc2c1`, the inhibition is 100%.
With `O=C(NCCN1CCC2(CC1)NCNC2=O)c1ccc2ccccc2c1`, the inhibition is 22% (inactive).
In the case of `O=C(NCCN1CCC2(CC1)C(=O)NCN2Cc1ccccn1)c1ccc2ccccc2c1`, the inhibition was 100%.

(Values after PubChem BioAssay AID743409 (Vanderbilt Specialized Chemistry Center, 2014).)
